Measured values published in patent US8791148B2, “Substituted benzimidazolone derivatives, medicaments comprising them and their use” (AbbVie Deutschland GmbH & Co. KG, priority 2006, dated 2014).

Biological target: T1, human vasopressin V1b receptor (Homo sapiens, UniProt P47901)
T1 construct: expressed in transfected cells; host or cells: CHO-K1 (cell line hV1b-3H2_CHO), membrane preparation
T1 sequence (P47901 1-424): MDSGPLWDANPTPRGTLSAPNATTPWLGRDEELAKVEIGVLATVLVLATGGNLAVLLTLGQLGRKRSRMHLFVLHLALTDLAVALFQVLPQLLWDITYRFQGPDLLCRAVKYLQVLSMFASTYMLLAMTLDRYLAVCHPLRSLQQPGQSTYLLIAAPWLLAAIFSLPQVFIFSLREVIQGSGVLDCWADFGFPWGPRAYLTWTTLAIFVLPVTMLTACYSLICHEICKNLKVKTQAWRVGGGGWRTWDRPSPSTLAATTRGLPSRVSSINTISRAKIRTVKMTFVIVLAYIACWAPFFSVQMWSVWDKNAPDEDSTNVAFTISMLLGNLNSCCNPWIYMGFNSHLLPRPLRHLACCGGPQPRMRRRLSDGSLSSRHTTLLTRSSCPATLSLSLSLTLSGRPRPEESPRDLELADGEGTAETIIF
Test: Vasopressin V1b receptor binding assay
Settings: membranes from CHO-K1 cells with stably expressed human V1b receptors; displacement of 1.5 nM 3H-AVP; read-out: V1b receptor affinity (affinity constant Ki)
Summary of the method: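 Ki values come from nonlinear regression of triplicate scintillation counts after filtration. Test compound (2% DMSO in the mixture) and radioligand were incubated 60 min at room temperature with human V1b membranes in pH 7.4 Tris buffer with 10 mM MgCl2 and 0.1% BSA. Nonspecific binding was set with 1 uM AVP.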

SMILES	Ki [nM]
COc1ccc(S(=O)(=O)n2c(=O)n(C(C(=O)N[C@@H]3CCNC3)c3ccccc3)c3cc(Cl)ccc32)cc1 (stereo partly drawn) [Example 174, 2-[6-Chloro-3-(4-methoxybenzenesulfonyl)-2-oxo-2,3-dihydrobenzimidazol-1-yl]-2-phenyl-N—(R)-pyrrolidin-3-ylacetamide]	500 to 10000
COc1ccc(S(=O)(=O)n2c(=O)n(C(C(=O)N3CCN(c4ccncc4)CC3)c3ccccc3)c3cc(Cl)ccc32)c(OC)c1 (centres unmarked) [Example 56, 5-Chloro-1-(2,4-dimethoxybenzenesulfonyl)-3-[2-oxo-1-phenyl-2-(4-pyridin-4-ylpiperazin-1-yl)-ethyl]-1,3-dihydrobenzimidazol-2-one]	100 to 500
O=C(C(c1ccccc1)n1c(=O)n(S(=O)(=O)c2ccc(OC(F)(F)F)cc2)c2ccc(Cl)cc21)N1CCN(c2ccncc2)CC1 (centres unmarked) [Example 42, 5-Chloro-3-[2-oxo-1-phenyl-2-(4-pyridin-4-ylpiperazin-1-yl)ethyl]-1-(4-trifluoromethoxybenzenesulfonyl)-1,3-dihydrobenzimidazol-2-one]	500 to 10000
CCCN1CCN(CCCNC(=O)C(c2ccccc2)n2c(=O)n(S(=O)(=O)c3ccc(OC)cc3)c3ccc(Cl)cc32)CC1 (centres unmarked) [Example 136, 2-[6-Chloro-3-(4-methoxybenzenesulfonyl)-2-oxo-2,3-dihydrobenzimidazol-1-yl]-2-phenyl-N-[3-(4-propylpiperazin-1-yl)propyl]-acetamide]	100 to 500
COc1ccc(S(=O)(=O)n2c(=O)n(C(C(=O)N3CCN(c4ccncc4)CC3)c3cccc(OC)c3)c3cc(Cl)ccc32)cc1 (centres unmarked) [Example 20, 5-Chloro-1-(4-methoxybenzenesulfonyl)-3-[1-(3-methoxyphenyl)-2-oxo-2-(4-pyridin-4-ylpiperazin-1-yl)ethyl]-1,3-dihydrobenzimidazol-2-one]	< 100

More lines, now with the values ahead:

Ki [nM]	SMILES
< 100	CCCN1CCC(N[C@H]2CCN(C(=O)C(c3ccccc3)n3c(=O)n(S(=O)(=O)c4ccc(OC)cc4)c4ccc(C#N)cc43)C2)CC1 (stereo partly drawn) [Example 210, 1-(4-Methoxybenzenesulfonyl)-2-oxo-3-{2-oxo-1-phenyl-2-[(S)-3-(1-propylpiperidin-4-ylamino)pyrrolidin-1-yl]ethyl}-2,3-dihydro-1H-benzimidazole-5-carbonitrile]
500 to 10000	COc1ccc(S(=O)(=O)n2c(=O)n(C(C(=O)N3CC[C@@H](N4CCN(Cc5ccccc5)CC4)C3)c3ccccc3)c3cc(C#N)ccc32)cc1 (stereo partly drawn) [Example 144, 3-{2-[(R)-3-(4-Benzylpiperazin-1-yl)-pyrrolidin-1-yl]-2-oxo-1-phenylethyl}-1-(4-methoxybenzenesulfonyl)-2-oxo-2,3-dihydro-1H-benzimidazole-5-carbonitrile]
< 100	COc1ccc(S(=O)(=O)n2c(=O)n(C(C(=O)N3CCC(N4CCNCC4)C3)c3ccccc3)c3cc(Cl)ccc32)cc1 (centres unmarked) [Example 146, 5-Chloro-1-(4-methoxybenzenesulfonyl)-3-[2-oxo-1-phenyl-2-(3-piperazin-1-ylpyrrolidin-1-yl)-ethyl]-1,3-dihydrobenzimidazol-2-one]
100 to 500	COc1ccc(S(=O)(=O)n2c(=O)n(C(C(=O)N3CCC[C@H](N)C3)c3ccccc3)c3cc(C#N)ccc32)cc1 (stereo partly drawn) [Example 240, 3-[2-((S)-3-Amino-piperidin-1-yl)-2-oxo-1-phenyl-ethyl]-1-(4-methoxybenzenesulfonyl)-2-oxo-2,3-dihydro-1H-benzoimidazole-5-carbonitrile]
100 to 500	CCCN1CCN(C2CCN(C(=O)C(Cc3ccccc3)n3c(=O)n(S(=O)(=O)c4ccc(OC)cc4)c4ccc(Cl)cc43)C2)CC1 (centres unmarked) [Example 81, 3-{1-Benzyl-2-oxo-2-[3-(4-propylpiperazin-1-yl)pyrrolidin-1-yl]ethyl}-5-chloro-1-(4-methoxybenzenesulfonyl)-1,3-dihydrobenzimidazol-2-one]
500 to 10000	COc1ccc(S(=O)(=O)n2c(=O)n(C(C(=O)N3CCN(C4CCN(C)CC4)CC3)c3ccccc3)c3ccccc32)c(OC)c1 (centres unmarked) [Example 67, 1-(2,4-Dimethoxybenzenesulfonyl)-3-{2-[4-(1-methylpiperidin-4-yl)piperazin-1-yl]-2-oxo-1-phenylethyl}-1,3-dihydrobenzimidazol-2-one]
